The source of these data is US11078189B2, “Pharmaceutical compounds” (REVIRAL LIMITED, priority 2017, dated 2021).

Series [1] deals with T1, RSV fusion (pCDNA3.1_A2_F in HEK 293T cells) (Human respiratory syncytial virus A, UniProt P03420).
T1 construct: expressed in transfected cells; host or cells: HEK 293T (ECACC 12022001)
Put plainly: RSV fusion assay. Type of series: cell-based. How it is done:
HEK 293T ((ECACC 12022001) cells were cultured in T75 culture flasks in Dulbecco's medium (DMEM) containing 10% Foetal Bovine serum (FBS), 50 units per mL Penicillin and 50 μg/mL Streptomycin and warmed to 37° C. prior to use. The cells were passaged by first washing briefly with 5 mL Phosphate buffered saline (PBS), followed by addition of 2 mL of Trypsin Ethylenediaminetetraacetic acid (EDTA) to detach the cells. Once cells had detached from the flask, 8 mL media was then added to and the cells dispersed via pipetting against the bottom of the flask.
The cells were counted and diluted to 3×10^5 cells/ml in fresh media. Two T75 flasks were each seeded with 15.6 mL diluted cells, cells were also subcultured at a ratio of between 1:2 and 1:10, to continue the stock. The flasks were then incubated for 24 h at 37° C. and 5% CO2.
The plasmid DNA (for pFR-Luc and pcDNA3. 1_Gal4/NFKB) to be transfected into the HEK 293T cells was first prepared in serum free media (Opti-MEM, Invitrogen), containing the transfection reagent FuGENE® 6 (Promega). Serum free media was placed in a 1.5 mL eppendorf tube then the FuGENE 6 was added into the media. The tube was vortexed for 1 s before being incubated at RT for 5 min. 7.79 ng of both pFR_luc and pCDNA3.1_A2_F plasmid DNA were added to tube 1 and 7.79 ng of pCDNA3.1_GAL4-NF-κB plasmid to tube 2. The tubes were vortexed for 1 second and then incubated at room temperature for 15 min. Each transfection mixture was then added into the media of one of the T75 flasks of 293T cells. Cells were cultured for 24h at 37° C., 5% CO2 in a humidified incubator.
Compounds were diluted (in a polypropylene round-bottomed 96 well plate) 1:3 in a twelve point dilution curve to give top [final] of either 25 μM, 3 μM, 1 μM or 500 nM. A control compound was included in every assay at a top concentration of 3 μM. Transfected cells were counted and diluted to 4×10^5 cells/mL in fresh media. 50 μL of transfection population 1 were added to all wells of the 96 well flat bottom white opaque assay plates. 100 μL diluted compound (2 rows per compound), control compound (one row) and controls (DMSO (0% inhibition, four wells), 3 μM positive control (100% inhibition, four wells) and media (transfection population 1 only, four wells) were added to the appropriate wells. 50 μL of the diluted (4×10^5 cells/mL) population 2 cells when then added to all wells, except the four wells of transfection population 1 only where an extra 50 μL of this cells population was added.
The plates were then incubated for 24 h at 37° C. and 5% CO2. After this time, 100 μL was removed from all wells and 60 μL of ONE-Glo™ (Promega) reagent, pre-equilibrated to room temperature, was added. Plates were then incubated for 3 min at room temperature before luminescence was read, using the ONE-Glo protocol, on the GloMax Explorer System (Promega) multimode reader. Analysis was carried out in Dotmatics software. All raw data were background subtracted (subtraction of mean 3 μM positive control value), before IC50 calculation.

The test system of series [2] is RSV A2 VR-1540. Put plainly: RSV plaque reduction assay. Type of series: cell-based. The note with it: human respiratory syncytial virus; Strain A2; n = 1; HEp-2 cells. On the procedure: HEp-2 cells (ATCC, CCL23) were passaged in flasks and seeded in 96-well plates in DMEM containing antibiotics and supplemented with 10% FBS. During inoculation and subsequent incubation, cells were cultured in DMEM containing 3% FBS. 100 plaque forming unit (PFU)/well of RSV (RSV A2 VR-1540) was mixed with ten serial dilutions of compound. Subsequently, 100 μL of the virus/compound mixtures was added to confluent HEp-2 cell monolayers. The cells and virus/compound mixtures were incubated at 35° C. in a humidified 5% CO2 incubator for 1 day.
Cells were washed twice with PBS before adding 50% v/v EtOH/MeOH, and then stored at −20° C. On the day of the staining, fixative was first removed from the plates. Plates were washed 3× with PBS. A pre-titrated amount of the primary antibody was added in 60 μL PBS/2% milk powder, and plates incubated for 1 h at […]. The plates were washed 3× with PBS/0.05% Tween20 before addition of goat anti-mouse horse radish peroxidase in 60 μL PBS/2% milk powder, and incubated for 1 h at rt. Following three wash steps with PBS/0.05% Tween20, 60 μL ready-to-use TrueBlue was added and plates were incubated at rt for 10-15 min before adding MilliQ water. Plates were washed once with water, incubated for 30-60 min and after removal of water, air-dried in the dark.
Plates were scanned and analyzed using the Immunospot S6 UV analyzer, which is equipped with BioSpot analysis software for counting immunostained plaques (virospots). Plaque counts were used to calculate % infection relative to the mean of the spot count (SC) in the virus control wells for RSV. IC50/IC90 values were calculated as 50% or 90% reduction in signal, respectively, by interpolation of inhibition curves fitted with a 4-parameter nonlinear regression with a variable slope in GraphPad 5.0 (Prism).
For orientation: Plaque reduction counts the foci of infection that form in a cell layer.

Series [3] concerns MDR1. Put plainly: in vitro. Format: in vitro ADME. The note with it: dog, MDCK-MDR1. On the procedure:
MDR1-MDCK cells obtained from the NIH (Rockville, Md., USA) are used between passage numbers 6-30. Cells are seeded onto Millipore Multiscreen Transwell plates at 3.4×10^5 cells/cm^2. The cells are cultured in DMEM and media is changed on day 3. On day 4 the permeability study is performed. Cell culture and assay incubations are carried out at 37° C. in an atmosphere of 5% CO2 with a relative humidity of 95%. On the day of the assay, the monolayers are prepared by rinsing both basolateral and apical surfaces twice with Hanks Balanced Salt Solution (HBSS) at the desired pH warmed to 37° C. Cells are then incubated with HBSS at the desired pH in both apical and basolateral compartments for 40 min to stabilise physiological parameters.
The dosing solutions are prepared by diluting test compound with assay buffer to give a final test compound concentration of 10 μM (final DMSO concentration of 1% v/v). The fluorescent integrity marker lucifer yellow is also included in the dosing solution. Analytical standards are prepared from test compound DMSO dilutions and transferred to buffer, maintaining a 1% v/v DMSO concentration.
For assessment of A-B permeability, HBSS is removed from the apical compartment and replaced with test compound dosing solution. The apical compartment insert is then placed into a companion plate containing fresh buffer (containing 1% v/v DMSO). For assessment of B-A permeability, FIBSS is removed from the companion plate and replaced with test compound dosing solution. Fresh buffer (containing 1% v/v DMSO) is added to the apical compartment insert, which is then placed into the companion plate. At 60 min the apical compartment inserts and the companion plates are separated and apical and basolateral samples diluted for analysis. Test compound permeability is assessed in duplicate. Compounds of known permeability characteristics are run as controls on each assay plate.
Test and control compounds are quantified by LC-MSMIS cassette analysis using an 8-point calibration with appropriate dilution of the samples. The starting concentration (C0) is determined from the dosing solution and the experimental recovery calculated from C0 and both apical and basolateral compartment concentrations. The integrity of the monolayer throughout the experiment is checked by monitoring lucifer yellow permeation using fluorimetric analysis. Lucifer yellow permeation is high if monolayers have been damaged.

T1 sequence (P03420 26-109): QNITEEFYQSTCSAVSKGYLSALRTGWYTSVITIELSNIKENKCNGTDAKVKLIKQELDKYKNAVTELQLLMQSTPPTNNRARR
T1 sequence (P03420 137-574): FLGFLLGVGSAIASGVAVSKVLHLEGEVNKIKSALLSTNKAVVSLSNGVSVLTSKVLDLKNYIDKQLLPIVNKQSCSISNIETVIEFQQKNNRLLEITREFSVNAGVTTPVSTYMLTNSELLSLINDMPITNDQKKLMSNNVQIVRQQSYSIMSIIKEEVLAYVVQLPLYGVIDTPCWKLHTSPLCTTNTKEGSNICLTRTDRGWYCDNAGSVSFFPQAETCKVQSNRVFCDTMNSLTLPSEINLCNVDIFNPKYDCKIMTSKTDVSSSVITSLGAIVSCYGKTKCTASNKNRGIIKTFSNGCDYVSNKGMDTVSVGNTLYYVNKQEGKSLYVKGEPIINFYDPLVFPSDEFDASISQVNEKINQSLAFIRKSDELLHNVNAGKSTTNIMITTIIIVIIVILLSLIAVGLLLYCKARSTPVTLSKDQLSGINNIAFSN

Consider `CCS(=O)(=O)CCNCCCn1c(CN2C(=O)C3(CC3)c3ccc(F)cc32)nc2cc(Cl)ccc21` [Compound 11, 1′-{[5-Chloro-1-(3-{[2-(ethanesulfonyl)ethyl]amino}propyl)-1H-1,3-benzodiazol-2-yl]methyl}-6′-fluoro-1′,2′-dihydrospiro[cyclopropane-1,3′-indole]-2′-one], for which the IC50 in series [1] is 24 nM; in series [2], 5 nM. In series [2], this molecule showed an IC90 of 41 nM.
In series [1], `CS(=O)(=O)C1CCN(CCCn2c(CN3C(=O)C4(CC4)c4ccc(F)cc43)nc3cc(Cl)ccc32)CC1` [Compound 20, 1′-({5-Chloro-1-[3-(4-methanesulfonylpiperidin-1-yl)propyl]-1H-1,3-benzodiazol-2-yl}methyl)-6′-fluoro-1′,2′-dihydrospiro[cyclopropane-1,3′-indole]-2′-one] displayed an IC50 of 12 nM. In series [2], this molecule registered an IC50 of 5.9 nM and an IC90 of 7.5 nM. In series [3], this molecule returned a Papp A→B at 60 min, 10 μM of 1.6 ×10⁻⁶ cm/s and a Papp B→A at 60 min, 10 μM of 61.3 ×10⁻⁶ cm/s.
With `O=C1N(Cc2nc3cc(Cl)ccc3n2CCCN2CCS(=O)(=O)CC2)c2cc(F)ccc2C12CC2` [Compound 28, 4-{3-[5-Chloro-2-({6′-fluoro-2′-oxo-1′,2′-dihydrospiro[cyclopropane-1,3′-indole]-1′-yl}methyl)-1H-1,3-benzodiazol-1-yl]propyl}-1λ6-thiomorpholine-1,1-dione], in series [1], half-maximal inhibition (IC50) required 115 nM. In series [2], this molecule displayed an IC50 of 9.5 nM and an IC90 of 48 nM.
`O=C1N(Cc2nc3cc(Cl)ccc3n2CCCN2CCOCC2)c2cc(F)ccc2C12CC2` [Compound 18, 1′-({5-Chloro-1-[3-(morpholin-4-yl)propyl]-1H-1,3-benzodiazol-2-yl}methyl)-6′-fluoro-1′,2′-dihydrospiro[cyclopropane-1,3′-indole]-2′-one] showed an IC50 in series [1] of 70 nM. Also, in series [2], the midpoint of inhibition, the IC50, lay at 7.6 nM and it took 60 nM to reach the 90% level (IC90).
In series [1], `CS(=O)(=O)N1CCN(CCCn2c(CN3C(=O)C4(CC4)c4ccc(F)cc43)nc3cc(Cl)ccc32)CC1` [Compound 1, 1′-({5-Chloro-1-[3-(4-methanesulfonylpiperazin-1-yl)propyl]-1H-1,3-benzodiazol-2-yl}methyl)-6′-fluoro-1,2′-dihydrospiro[cyclopropane-1,3′-indole]-2′-one] gave an IC50 of 19 nM. Also, in series [2], the IC50 worked out at 5.9 nM and the IC90 came to 50 nM.
Take `CS(=O)(=O)C1CN(CCCn2c(CN3C(=O)C4(CC4)c4ccc(F)cc43)nc3cc(Cl)ccc32)C1` [Compound 13, 1′-({5-Chloro-1-[3-(3-methanesulfonylazetidin-1-yl)propyl]-1H-1,3-benzodiazol-2-yl}methyl)-6′-fluoro-1′,2′-dihydrospiro[cyclopropane-1,3′-indole]-2′-one]: the IC50 in series [1] was determined as 10 nM; in series [2], 4.5 nM. Moreover, in series [2], the IC90 was 41 nM.
For `CS(=O)(=O)N1CCN(CCn2c(CN3C(=O)C4(CC4)c4ccc(F)cc43)nc3cc(Cl)ccc32)CC1` [Compound 9, 1′-({5-chloro-1-[2-(4-methanesulfonylpiperazin-1-yl)ethyl]-1H-1,3-benzodiazol-2-yl}methyl)-6′-fluoro-1′,2′-dihydrospiro[cyclopropan-1,3′-indole]-2′-one], the results for the IC50 in series [1] and in series [2] were 15 nM and 4.2 nM, respectively. In series [2], it took 28 nM to reach the 90% level (IC90).
For the molecule `CS(=O)(=O)CCNCCCn1c(CN2C(=O)C3(CC3)c3ccc(F)cc32)nc2cc(Cl)ccc21` [Compound 10, 1′-[(5-Chloro-1-{3-[(2-methanesulfonylethyl)amino]propyl}-1H-1,3-benzodiazol-2-yl)methyl]-6′-fluoro-1′,2′-dihydrospiro[cyclopropane-1,3′-indole]-2′-one], in series [1], half-maximal inhibition (IC50) required 12 nM. In series [2], the IC50 is 2.5 nM and the IC90 was determined as 31 nM.
Regarding `CS(=O)(=O)C1CCN(CCCn2c(CN3C(=O)C4(CC4)c4ccc(F)cc43)nc3cc(Cl)ccc32)C1` (stereo not shown) [Compound 14, 1′-({5-Chloro-1-[3-(3-methanesulfonylpyrrolidin-1-yl)propyl]-1H-1,3-benzodiazol-2-yl}methyl)-6′-fluoro-1′,2′-dihydrospiro[cyclopropane-1,3′-indole]-2′-one], in series [1], the IC50 was found to be 18 nM. In series [2], this molecule yielded an IC50 of 3.5 nM and an IC90 of 34 nM. Further, in series [3], the Papp A→B at 60 min, 10 μM amounted to 4.8 ×10⁻⁶ cm/s and the Papp B→A at 60 min, 10 μM turned out to be 68 ×10⁻⁶ cm/s.
Regarding `CC(C)[C@H](NCCCn1c(CN2C(=O)C3(CC3)c3ccc(F)cc32)nc2cc(Cl)ccc21)C(N)=O` [Compound 12, (2S)-2-({3-[5-chloro-2-({6′-fluoro-2′-oxo-1′,2′-dihydrospiro[cyclopropane-1,3′-indole]-1′-yl}methyl)-1H-1,3-benzodiazol-1-yl]propyl}amino)-3-methylbutanamide], the IC50 in series [1] was determined as 71 nM. In series [2], this molecule came in with an IC50 of 29 nM and an IC90 of 200 nM.

The term IC50 denotes the concentration at which inhibition is half-maximal. Low values mean higher potency, high ones lower potency. The term IC90 denotes the point of the concentration-response curve where the effect stands at 90%. High values mean a need for much substance, low ones an effect from little substance. Broadly, the Papp A→B is how fast a substance crosses the layer from the apical side. As a reminder, the Papp B→A is how fast a substance crosses the layer from the basolateral side.
